Experimental data: article PMC11215077, “Antiviral activity of temporin-1CEb analogues against gingival infection with herpes simplex virus type 1” (Frontiers in Oral Health, 2024)
Converted amounts (≈) assume the structure as drawn. Like-named read-outs stand apart in the source and are kept apart here. Square brackets hold non-standard residues; d marks the D form. Peptide text beside a SMILES is read from it. AEEA = NCCOCCOCC(=O)O

Experiments:
HSV-1 [1] = test: Antiviral activity in 3D organotypic model of human gingiva (OTG); format: cell-based, herpes simplex virus type 1; settings: 15 μg/ml; H&E stained sections; Figure 5A
Method: Protocol was described previously ([34]). Briefly, to prepare 3D cultures, 150,000 gingival fibroblasts suspended in 10% FBS in DMEM were mixed with 2.4 ml of ice-cold Matrigel® (Corning) (final concentration 7 mg/ml) and placed in the middle of 12-well cell culture inserts (Greiner). Three days later, 1 × 10^6 TIGK cells suspended in EPM1 were added to the top of the insert. On the ninth day after the start of the procedure, the old culture medium was removed and EPM2 was added to the bottom of the insert. The epithelial layer on the top was exposed to the air, which promotes epithelial differentiation and then stratification. About 8–10 days after air-liquid interphase, 3D cultures of gingiva were used for further experiments.
The apical surface of OTG model was washed three times with PBS and then inoculated with 100 μl of viral stock (TCID50 400 /ml) in the presence of DAL-PEG-LK6 or CPP1-PEG-LK6 (15 μg/ml) for 2 h at 4°C. Following incubation, the unbound HSV-1 was removed by washing with PBS for 10 min at 37°C, and the OTG cultures were maintained at an air-liquid interface for the rest of the experiment. To determine viral yield, 120 μl of PBS was applied to the apical surface of the OTG, and harvested for DNA isolation after 10 min of incubation at 37°C.
Briefly, cell inserts were fixed in 10% formaldehyde at 4°C for 1 h. After embedding in paraffin, 3D cultures were cut into 5 μm sections and stained with H&E solution. For immunohistochemical analysis, slides were incubated for 1 h at room temperature in blocking buffer (5% normal goat serum, 0.1% saponin in PBS) and stained with primary antibodies anti-HSV-1 (1:100, 1% normal goat serum, 0.1% saponin in PBS; Abcam) and secondary antibodies: goat anti-rabbit conjugated with Alexa Fluor 488 (1:2000; Cell Signaling). Finally, cell nuclei were stained with ProLong Antifade Mounting Medium with DAPI. Slides were visualized with EVOS FL Cell Imaging System (Thermo Fisher Scientific).
(§1) Viral DNA was isolated from the conditioned media or the apical washes of inserts (OTG model) using Viral DNA/RNA Isolation Kit (A&A Biotechnology). The virus yield assessed by quantitative real-time PCR (qPCR). The reaction was carried out in a CFX96 Touch Real-Time PCR Detection System (Bio-Rad), in a 10 μl reaction mixture consisting of TaqMan^TM Fast Advanced Master Mix, TaqMan^TM Microbe Detection assay against HSV-1 (Vi04230116_s1) and 1 μl of viral DNA. The temperature profile was 10 s at 95°C, followed by 40 cycles of 3 s at 95°C and 20 s at 60°C. DNA quantification standards were prepared. In summary, a fragment of viral DNA was amplified using the primers listed above and cloned into the pTZ57R/T plasmid using the InsTAclone PCR cloning kit. The plasmid was propagated in E. coli, purified with the GeneJet Plasmid Miniprep Kit, and digested with the EcoR1 restriction enzyme. The number of copies per mL was estimated after the concentration of linearized DNA was assessed spectrophotometrically.

HSV-1 [2] = settings: concentration reducing viral replication by 50%; TIGKs cells pre-treated, infected and cultivated with compound; qPCR; mean of two independent experiments
Method: Data were expressed as means ± SD. Statistical significance was determined using unpaired t-test, one-way ANOVA, and/or two-way ANOVA for direct comparisons between single groups. A p-value <0.05 was considered statistically significant. We used GrapPad Prism 10 software for the analyses. […]

[3] = Analytical RP-HPLC retention time; settings: Phenomenex Jupiter 4 μ Proteo 90 Å, 250 × 4.60 mm, listed as basic physicochemical characteristic
Method: The synthesized compounds were then purified by reverse-phase high-performance liquid chromatography (RP-HPLC) on a Waters system (Phenomenex Jupiter 4 μ Proteo 90 Å column, 250 × 10 mm). A linear gradient from 10% to 80% of solvent B over 60 min (Solvent A: 0.1% TFA in water; Solvent B: 80% acetonitrile in Solvent A) was employed with a flow rate 5 ml/min. The homogeneity of the final peptide fractions was analyzed using a Shimadzu HPLC System (Shimadzu Europe GmbH, Duisburg, Germany) equipped with a Phenomenex Jupiter 4 μ Proteo 90 Å column, 250 × 4.60 mm. The mass spectra of the synthesized peptides were recorded using a Biflex III MALDI-TOF mass spectrometry (Bruker, Mannheim, Germany) with α-cyano-4-hydroxy-cinnamic acid (CCA) or 2,5-dihydroxybenzoic acid (DHB) used as the matrix.

HSV-1 [4] = test: Virus inhibition (replication) assay in Vero E6 and TIGKs cells, qPCR, titration, gB Western blot; format: cell-based, herpes simplex virus type 1; settings: 48 h p.i.
Method: HSV-1 stocks were generated by infecting Vero E6 cells. Cells were lysed at 48 h p.i. by two freeze-thaw cycles. The virus containing fluid was aliquoted and stored at −80°C. A control Vero E6 cell lysate from mock-infected cells was prepared in the same manner as the virus stock. Virus yield was assessed by virus titration on fully confluent Vero E6 cells in 96-well plates, according to the method of Reed & Muench ([32]). Plates were incubated at 37°C for 48 h and the occurrence of a cytopathic effect was scored using an inverted microscope, and TCID50 (50% tissue culture infection dose) was calculated.
Vero E6 or TIGKs cells were seeded in 12-well plates and cultured for 48 h. […] After 30 min of incubation at 37°C, cells were infected with HSV-1 at TCID50 400 /ml or treated with mock. After 2 h of infection at 37°C, unbound viral particles were removed by washing with PBS, and culture media supplemented with peptide conjugates were applied. Following 48 h of incubation, media were collected, and the quantity of HSV-1 DNA copies was assessed using titration and qPCR.
as §1
Protein extracts were prepared using lysis buffer (0.25% Na-deoxycholate, 0.5% Nonidet P-40, 0.05% SDS, protease inhibitor mixture, 2.5 mM EDTA in PBS), and the protein concentration was assessed using Pierce BCA (Thermo Fisher) protein assay kit. Equal amounts of cell extracts were separated on 10% SDS-PAGE gel and electrotransferred onto polyvinylidene difluoride membranes for gB and β-actin in transfer buffer (25 mM Tris, 0.2 M glycine, and 20% ethanol) for 90 min at 100 V. Nonspecific binding sites were blocked for 90 min in 5% skimmed milk prepared in TBST buffer (20 mM Tris, pH 7.5, 0.5 M NaCl, 0.05% Tween 20). Membranes were further incubated overnight at 4°C with primary antibodies: mouse anti-HSV-1 + HSV-2 gB (1:5000; abcam) and mouse anti-β-actin (1:4,000; BD Biosciences). The following day, membranes were washed three times with TBST buffer and incubated with HRP-conjugated secondary antibodies for 60 min at 37°C: goat anti-mouse IgG (1:20,000; β-actin; BD Bioscience) or sheep anti-mouse IgG (1:50,000; gB; Sigma Aldrich). Next, blots were washed five times for 5 min in TBST buffer, developed using Luminata Cresecendo Substarte (Merck) and exposed to AGFA medical x-ray film. Densitometry analysis was performed using ImageJ 1.52q software.

HSV-1 [5] = tested on: HSV-1; parameters: method as in PMID 29483113; settings: different model of epithelial cells; cited from earlier work
From the text: In our studies, we initially utilized the Vero E6 cell line, which has been a long-standing choice in herpesviruses research ([40], [41]).

Method for in vitro: The viability of Vero E6 and TIGKs cells was examined by the XTT Cell Viability Assay kit (Biological Industries, USA). Briefly, cells were treated with indicated concentrations of the peptide conjugates for 48 h at 37°C. Next, the fresh medium was added to the cells and 50 μl of the activated XTT reagent [2,3-bis(2-methoxy-4-nitro-5-sulphenyl)-2H-tetrazolium-5-carboxanilide] was added and further incubated for 2 h at 37°C. Absorbance was measured at a wavelength of 480 nm using FlexStation 3 microplate reader (Molecular Device, Wokingham, UK). The results were expressed normalized against a control of untreated cells (100% viability). To assess the effect of peptide conjugate on the integrity of the plasma membrane, the LDH release assay was performed using the CytoTox96 nonradioactive cytotoxicity assay kit (Promega, Madison, WI, USA) according to the manufacturer's instructions. Cytotoxicity was calculated with the formula: % cytotoxicity = 100 × (experimental LDH release/ maximum LDH release), where maximum LDH release is after lysis solution addition (Triton X-100). Relative amounts of LDH release were measured (absorbance at 490 nm) using FlexStation 3 microplate reader (Molecular Device, Wokingham, UK). […]
Data were expressed as means ± SD. Statistical significance was determined using unpaired t-test, one-way ANOVA, and/or two-way ANOVA for direct comparisons between single groups. […]

With CC[C@H](C)[C@H](NC(=O)COCCOCCNC(=O)[C@H](CCCNC(=N)N)NC(=O)[C@H](CC(C)C)NC(=O)[C@H](Cc1ccccc1)NC(=O)CNC(=O)[C@@H](C)NC(=O)[C@@H](N)Cc1ccc(O)cc1)C(=O)N[C@@H](CCCCN)C(=O)N[C@@H](CCCCN)C(=O)N[C@H](C(=O)N[C@@H](CC(C)C)C(=O)N[C@@H](CO)C(=O)N[C@H](CCCCN)C(=O)N[C@H](C(=O)N[C@@H](CCCCN)C(=O)N[C@@H](CCCCN)C(=O)N[C@@H](CC(C)C)C(=O)N[C@@H](CC(C)C)C(N)=O)[C@@H](C)CC)[C@@H](C)CC [DAL-PEG-DK5] (H-Y[dA]GFLR[AEEA]IKKILS[dK]IKKLL-NH2) the “morphology of epithelial cells in OTG (H&E)” value (HSV-1 [1]) was “no changes in the morphology of epithelial cells”.

CC[C@H](C)[C@H](NC(=O)COCCOCCNC(=O)[C@H](CCCNC(=N)N)NC(=O)[C@H](CC(C)C)NC(=O)[C@H](Cc1ccccc1)NC(=O)CNC(=O)[C@@H](C)NC(=O)[C@@H](N)Cc1ccc(O)cc1)C(=O)N[C@@H](CCCCN)C(=O)N[C@@H](CCCCN)C(=O)N[C@H](C(=O)N[C@@H](CC(C)C)C(=O)N[C@@H](CO)C(=O)N[C@@H](CCCCN)C(=O)N[C@H](C(=O)N[C@@H](CCCCN)C(=O)N[C@@H](CCCCN)C(=O)N[C@@H](CC(C)C)C(=O)N[C@@H](CC(C)C)C(=O)N[C@@H](CCCCN)C(N)=O)[C@@H](C)CC)[C@@H](C)CC [DAL-PEG-LK6] (H-Y[dA]GFLR[AEEA]IKKILSKIKKLLK-NH2) gave an IC50 (HSV-1 [2]) of 3.699 µg/mL (≈ 1.54 µM) and a CC50 at 48 h (in vitro) of 33.8 µg/mL (≈ 14.1 µM).

In the case of “RKKRRQRRR-O2Oc-IKKILSKIKKLLK-NH2 [CPP2-PEG-LK6, conjugate of cationic cell-penetrating peptide (HIV-1 TAT49–57 fragment) with LK6 via PEG linker]”, the Rt [3] is reported as 20.094, the “reduction in viral yield in the qPCR test” value (HSV-1 [4]; Figure 1C, Vero E6 (DAL-PEG-LK6 and CPP1-PEG-LK6 25 μg/ml; CPP2-PEG-LK6 10 μg/ml) and TIGKs cells (15 μg/ml)) is reported as 1 log and the “reduction of virus replication in titration assay” value (HSV-1 [4]; Figure 1D, both cell models (Vero E6, TIGKs), normalized to untreated control) is reported as 97%.

In the case of temporin B, the IC50 (HSV-1 [5]) is listed as 93 µg/mL.
